US8440653B2, “3-substituted-1,4-diazepan-2-one melanocortin-5 receptor antagonists” (Mimetica Pty Ltd, priority 2008, dated 2013)
Read-outs that look alike come from different tables or passages of the source.

Legend:
sebum excretion = details: oral isotretinoin, after 8-12 weeks of therapy; cited from earlier work
human MC1R = biological target: T1, human MC1R (Homo sapiens, UniProt Q01726); assay: Human MC1R radioligand binding assay; details: [125I] NDP-MSH
T1 construct: expressed in transfected cells; host or cells: transfected mammalian cells, if the membranes were in-house
Experimental: (§1) Assays were performed in 96 well polypropylene plates. […] This was incubated for 1 hr at 37° C. […] Non-specific binding just under 5%.
(§2) Radioligand binding assays were carried out using commercial or in-house prepared hMC1R, hMC3R and hMC4R membranes and [^125I] NDP-MSH, as per hMC5R procedure in Example 46.
(§3) The homogenisation and ice incubation was repeated three times. The mixture was then centrifuged at 1260×g for 5 mins. […] This was centrifuged at 30,000×g for 90 mins at 4° C.

human MC3R = biological target: T2, human MC3R (Homo sapiens, UniProt P41968); assay: Human MC3R radioligand binding assay; details: [125I] NDP-MSH
T2 construct: expressed in transfected cells; host or cells: transfected mammalian cells, if the membranes were in-house
Experimental: as §1, §2, §3

rhesus monkey MC5R = biological target: T3, rhesus monkey MC5R (Macaca mulatta, UniProt A0A5F8AEA9); assay: MC5R radioligand binding assay, other species: rhesus monkey MC5R membranes; details: membranes of cells expressing cloned receptor
T3 construct: expressed in transfected cells
Experimental: as §1
(§4) Representative compounds of the present invention were tested for binding to MC5R from other species, as in described in Example 48, the results are listed in Table 4.

human MC5R [1] = biological target: T4, human MC5R (Homo sapiens, UniProt P33032); assay: cAMP assay (antagonism of alpha-MSH) in HEK 293 cells expressing human MC5R; assay type: cell-based; details: HEK 293 cells transiently expressing MC5R; 10^−6 M alpha-MSH
T4 construct: host or cells: HEK 293, transient transfection
Experimental: (§5) HEK 293 cells transiently expressing the melanocortin MC5 receptor were suspended in stimulation buffer (Hanks buffered saline solution (HBSS), 0.1% bovine serum albumin, protease inhibitors and 0.5 mM 3-Isobutyl-1-methylxanthine) at 4×10^6 cells/mL. 5 μl of cells, plus the compounds/peptides as described below, were added to wells of a 384-well plate as soon as possible after resuspension.
To detect antagonist activity, test compounds at varying concentrations were diluted in stimulation buffer at four times concentrate and 2.5 μl was added to wells containing cells. 2.5 μl of a four times required concentration of NDP-MSH or alpha-MSH was added to all wells containing compounds. […]
(§6) Basal level (of cAMP) control wells contained stimulation buffer only (no agonist or compounds). […] After incubation, 10 μl of lysis buffer (10% Tween 20, 1 M HEPES, 0.1% BSA, protease inhibitors, ddH2O) was added to all wells to be measured. […] 5 μl of diluted acceptor beads were added to each well to be measured, then the plate was incubated for 30 mins at room temperature, in the dark, with gentle shaking. […] Plates were read on an Envision plate reader (Perkin Elmer) after 1 hr and ˜16 hrs incubation. cAMP concentration in the cells was determined by the use of a ‘standard curve’ generated from the output of known cAMP concentrations as described below. […]

human MC4R = biological target: T5, human MC4R (Homo sapiens, UniProt P32245); assay: Human MC4R radioligand binding assay; details: [125I] NDP-MSH
T5 construct: expressed in transfected cells; host or cells: transfected mammalian cells, if the membranes were in-house
Experimental: as §1, §2, §3

mouse MC5R = biological target: T6, mouse MC5R (Mus musculus, UniProt P41149); assay: MC5R radioligand binding assay, other species: mouse MC5R membranes; details: membranes from Euroscreen; read-out: mouse MC5R (membrane) IC50
T6 construct: purchased Euroscreen
Experimental: as §1, §4

human MC5R (hMC5R) = biological target: T7, human MC5R (hMC5R) (Homo sapiens, UniProt P33032); assay: Human MC5R radioligand binding assay ([125I] NDP-MSH displacement)
T7 construct: purchased Perkin Elmer RBXMC5M400UA
Experimental: Assessments of compound binding to human MC5R (hMC5R) by displacement of an ^125I-labeled NDP-MSH receptor ligand peptide were performed essentially as described in the data sheets produced by Perkin Elmer to accompany their frozen hMC5R membranes (Perkin Elmer catalog number RBXMC5M400UA).
Na^125I (0.5 mCi, 17.4 Ci/mg) was added to 50 μL sodium phosphate (50 mM, pH 7.4) in an eppendorf tube precoated with IODOGEN. After incubation for 10 mins the phosphate buffer containing the iodine was added to NDP-MSH (10 ul at 1 mg/mL) in a separate eppendorf tube. This was incubated for a further 10 mins. The iodinated NDP-MSH was purified by HPLC on a Zorbax SB 300 column using solvent A: 0.05% TFA and solvent B: 90% acetonitrile 0.045% TFA with a linear gradient, 0-67% B over 60 mins. The ^125I NDP-MSH eluted at 52 min after the unlabeled starting material (48 min) and was counted and stored in the freezer.
Incubation buffer: 25 mM HEPES-KOH (pH 7.0), 1.5 mM CaCl2, 1 mM MgSO4, 0.1 M NaCl, 1 mM 1,10-phenanthroline, and 1 Complete™ protease inhibitor tablet/100 mL (Roche, catalog number 1873580)
Perkin Elmer frozen hMC5 membranes: catalog number RBXMC5M400UA, 0.4 mL/vial; 400 microassays/vial. 0.78 mg/mL protein concentration
Vials of frozen membranes were thawed rapidly immediately before use, diluted with binding buffer and vortexed. Resuspended membranes were kept on ice until they were added to the wells of the plate.
as §1
Representative compounds of the present invention were tested for binding in the hMC5R assay as in Example 46, as listed in Table 3. The compounds were tested as their trifluoroacetate or hydrochloride salts, or as their free bases.

human MC5R [2] = biological target: T4, human MC5R; assay: cAMP stimulation assay (agonism) in HEK 293 cells expressing human MC5R; assay type: cell-based; details: HEK 293 cells transiently expressing MC5R
Experimental: as §5
To detect agonist activity, test compounds at varying concentrations were diluted in stimulation buffer at two times concentrate and 5 μl was added to wells containing cells. Positive control wells contained NDP-MSH or alpha-MSH alone (no compound) at two times concentrate
as §6

[3] = Table 5, hMCR binding selectivity, read-out: human MC5R IC50
[4] = hMC5R membranes, [125I] NDP-MSH, tested as trifluoroacetate or hydrochloride salts or free bases, read-out: MC5R radioligand IC50

T4 sequence (P33032 whole entry): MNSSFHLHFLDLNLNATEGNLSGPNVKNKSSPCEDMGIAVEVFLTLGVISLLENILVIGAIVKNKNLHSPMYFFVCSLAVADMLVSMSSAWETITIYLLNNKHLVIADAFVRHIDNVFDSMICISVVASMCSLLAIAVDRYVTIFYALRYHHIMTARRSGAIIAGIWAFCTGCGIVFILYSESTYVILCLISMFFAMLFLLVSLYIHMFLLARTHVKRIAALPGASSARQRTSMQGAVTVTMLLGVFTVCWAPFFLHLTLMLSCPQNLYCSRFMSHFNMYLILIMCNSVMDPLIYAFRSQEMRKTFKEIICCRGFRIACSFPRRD
T7 sequence (P33032 whole entry): as above
T5 sequence (P32245 whole entry): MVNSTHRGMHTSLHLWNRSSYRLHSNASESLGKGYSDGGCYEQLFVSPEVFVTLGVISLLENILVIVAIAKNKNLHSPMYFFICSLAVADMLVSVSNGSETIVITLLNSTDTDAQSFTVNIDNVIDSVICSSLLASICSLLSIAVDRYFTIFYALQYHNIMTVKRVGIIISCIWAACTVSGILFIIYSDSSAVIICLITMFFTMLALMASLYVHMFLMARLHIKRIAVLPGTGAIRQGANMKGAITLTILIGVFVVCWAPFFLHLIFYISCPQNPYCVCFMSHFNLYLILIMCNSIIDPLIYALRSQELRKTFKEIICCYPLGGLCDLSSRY
T2 sequence (P41968 whole entry): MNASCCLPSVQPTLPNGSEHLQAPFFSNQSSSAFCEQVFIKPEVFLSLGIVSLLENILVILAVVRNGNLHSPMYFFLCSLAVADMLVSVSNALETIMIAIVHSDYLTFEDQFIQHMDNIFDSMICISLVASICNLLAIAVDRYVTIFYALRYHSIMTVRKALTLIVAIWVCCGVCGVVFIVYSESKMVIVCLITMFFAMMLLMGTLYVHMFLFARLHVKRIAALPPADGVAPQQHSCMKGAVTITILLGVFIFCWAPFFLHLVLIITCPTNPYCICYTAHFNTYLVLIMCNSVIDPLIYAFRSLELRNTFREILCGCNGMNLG
T1 sequence (Q01726 whole entry): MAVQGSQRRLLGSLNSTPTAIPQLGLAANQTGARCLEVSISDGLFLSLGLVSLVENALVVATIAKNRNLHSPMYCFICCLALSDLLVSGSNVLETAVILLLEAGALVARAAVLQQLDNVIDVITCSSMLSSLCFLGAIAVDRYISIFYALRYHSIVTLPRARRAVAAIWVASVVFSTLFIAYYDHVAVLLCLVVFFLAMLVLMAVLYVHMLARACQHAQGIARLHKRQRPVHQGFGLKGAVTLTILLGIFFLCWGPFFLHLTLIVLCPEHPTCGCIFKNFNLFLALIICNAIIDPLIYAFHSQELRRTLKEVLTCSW
T6 sequence (P41149 whole entry): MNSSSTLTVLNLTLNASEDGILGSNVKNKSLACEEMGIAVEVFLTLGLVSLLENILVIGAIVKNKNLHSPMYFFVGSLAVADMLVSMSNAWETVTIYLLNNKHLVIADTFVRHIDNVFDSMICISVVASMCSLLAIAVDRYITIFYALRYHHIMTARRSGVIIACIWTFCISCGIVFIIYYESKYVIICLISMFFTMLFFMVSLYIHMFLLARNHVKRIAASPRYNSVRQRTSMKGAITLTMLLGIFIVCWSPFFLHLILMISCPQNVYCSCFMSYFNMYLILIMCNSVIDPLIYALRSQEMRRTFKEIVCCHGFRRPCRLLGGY
T3 sequence (A0A5F8AEA9 1-325): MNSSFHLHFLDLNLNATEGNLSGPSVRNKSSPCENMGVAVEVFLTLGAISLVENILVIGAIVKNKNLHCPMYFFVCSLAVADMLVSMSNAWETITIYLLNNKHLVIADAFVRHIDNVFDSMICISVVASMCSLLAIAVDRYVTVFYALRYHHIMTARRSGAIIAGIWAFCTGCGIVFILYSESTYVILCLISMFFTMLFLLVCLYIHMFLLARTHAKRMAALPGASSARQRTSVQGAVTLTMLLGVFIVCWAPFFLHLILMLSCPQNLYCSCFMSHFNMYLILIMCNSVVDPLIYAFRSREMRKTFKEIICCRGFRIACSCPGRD

SMILES | reduction of sebum excretion (sebum excretion) | IC50 (human MC1R) [µM] | IC50 (human MC3R) [µM] | IC50 (rhesus monkey MC5R) [µM] | IC50 (human MC5R [1]) [µM] | IC50 (human MC4R) [µM] | IC50 (mouse MC5R) [µM] | IC50 (human MC5R (hMC5R); Table 4, membranes, read-out: human MC5R (membrane) IC50) [µM] | IC50 (human MC5R (hMC5R); [3]) [µM] | IC50 (human MC5R (hMC5R); [4]) [µM] | EC50 (human MC5R [2]) [µM]
CC1=C(/C=C/C(C)=C/C=C/C(C)=C\C(=O)O)C(C)(C)CCC1 [isotretinoin, 13-cis-retinoic acid] | up to 90% | – | – | – | – | – | – | – | – | – | –
CC[C@H](CN1CC[C@@H](CNC(=O)c2ccc3cc(Cl)ccc3c2)N[C@@H](CCC(C)C)C1=O)c1ccccc1 [Compound 17, 6-chloro-N-(((3S,5S)-3-isopentyl-2-oxo-1-((S)-2-phenylbutyl)-1,4-diazepan-5-yl)methyl)-2-naphthamide] | – | > 10 | 3.05 | 3.76 | 6 | > 10 | 2.3 | 0.03 | 0.03 | < 0.1 | > 10
CC[C@H](CN1CC[C@@H](CNC(=O)c2ccc3cc(Cl)ccc3c2)N[C@@H](CCC(=O)N2CCCCC2)C1=O)c1ccccc1 [Compound 66, 6-chloro-N-(((3S,5S)-2-oxo-3-(3-oxo-3-(piperidin-1-yl)propyl)-1-((S)-2-phenylbutyl)-1,4-diazepan-5-yl)methyl)-2-naphthamide] | – | > 10 | 4.96 | – | 0.6 | > 10 | – | – | 0.05 | < 0.1 | > 10
O=C(/C=C/c1ccc(Cl)cc1)NC[C@@H]1CCN(CC(c2ccccc2)c2ccccc2)C(=O)[C@H](Cc2c[nH]cn2)N1 [Compound 63, (E)-N-(((3S,5S)-3-((1H-imidazol-4-yl)methyl)-1-(2,2-diphenylethyl)-2-oxo-1,4-diazepan-5-yl)methyl)-3-(4-chlorophenyl)acrylamide] | – | – | – | – | – | – | – | – | – | < 10 | –
